This passage reports Kd results from paper PMC4406947, “CALM Regulates Clathrin-Coated Vesicle Size and Maturation by Directly Sensing and Driving Membrane Curvature” (Developmental Cell, 2015).

Test [1] deals with T1, CALM ANTH (CALM ANTH-WT).
T1 construct: gene PICALM; recombinant N-terminal ANTH domain including AH0, first 289 residues; construct details in supplement; clone could be rat Picalm (earlier ANTH constructs of this group)
In words: liposome-based SPR (BIAcore […]). Type of test: binding, Homo sapiens. Particulars: PtdIns4,5P2-containing liposomes, not free lipid; 170 mM salt. (Surface plasmon resonance follows binding to a sensor surface in real time, without labels.)

Test [2] addresses T2, CALM ANTH(ΔH0) (Homo sapiens, UniProt Q13492).
T2 construct: gene PICALM; recombinant ANTH domain lacking the N-terminal amphipathic helix AH0 (residues 1-18); construct details in supplement; clone could be rat Picalm
T2 sequence (Q13492 19-289): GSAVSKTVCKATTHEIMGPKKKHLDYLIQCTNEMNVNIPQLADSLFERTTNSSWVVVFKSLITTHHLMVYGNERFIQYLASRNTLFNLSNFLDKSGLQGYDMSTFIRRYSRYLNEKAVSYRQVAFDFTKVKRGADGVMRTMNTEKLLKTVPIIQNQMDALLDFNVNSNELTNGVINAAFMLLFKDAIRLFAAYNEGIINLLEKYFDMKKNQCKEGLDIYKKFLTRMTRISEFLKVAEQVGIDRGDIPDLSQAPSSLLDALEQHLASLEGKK
In words: liposome-based SPR (BIAcore […]). Type of test: binding. As to conditions: PtdIns4,5P2-containing liposomes, not free lipid; 170 mM salt.

As usually defined, the Kd is a measure of binding affinity in units of concentration. As to PtdIns4,5P2, the Kd in test [1] came to 1.5 µM; in test [2], 11.5 ± 1.1 µM.
